From US20020115059A1, “Drug screening system” (priority 2000, published 2002)

System: mouse ES cells
Assay: In vitro hepatic differentiation of ES cells (EBs): marker mRNA expression by RT-PCR / real-time PCR
Format: cell-based
Details: EBs on collagen coated dishes, factors of individual stages, Day 18
Protocol: Cell Culture—The ES cell lines R1 (129Sv strain), W9.5 (129Sv), and SEK1 null (established from W9.5) (Ganiatsas et al., (1998) Proc. Natl. Acad. Sci. USA 95, 6881-6) were maintained undifferentiated in gelatin-coated dishes in DMEM (GIBCO BRL, Grand Island, N.Y.) containing 15% fetal bovine serum (Atlanta biologicals, Norcross, Ga.), 2 mM L-glutamine, 100 units/ml penicilin, 100 μg/ml streptomycin, 25 mM Hepes (GIBCO BRL), 300 μM monothioglycerol (Sigma, St. Louis, Mo.), and 250 unit/ml recombinant mouse LIF (ESGRO, CHEMICON, Temecula, Calif.). To induce differentiation, ES cells were suspended in IMDM containing 2 mM L-glutamine, 100 units/ml penicillin, 100 μg/ml streptomycin (GIBCO BRL), 20% fetal bovine serum (Atlanta biologicals) and 300 μM monothioglycerol (Sigma). Cells were cultured for 2 days by the hanging-drop method (1×10^3 ES cells per 30 μl in each drop) (Metzger et al., (1994) J. Cell. Biol. 126, 701-11). EBs in hanging drops were transferred to suspension culture in 100-mm petri dishes and cultured for an additional 3 days. […]
For each gene, the DNA primers were originated from different exons to ensure that the PCR product represented the specific mRNA species and not genomic DNA. Relative quantitation of albumin gene was performed by ABIPRISM5700 sequence detection system and SYBR green PCR master mix (PE Biosystems, Foster City, Calif.). […]

hepatocyte growth factor [HGF]
G6P expression (FIG. 5a): critical
